Values quoted from earlier work, collected in paper PMC9851200, “Multiparameter phenotypic screening for endogenous TFEB and TFE3 translocation identifies novel chemical series modulating lysosome function” (Autophagy, 2022).

Assays:
Parameters in all cases: method as in original PKIS2 published data
[1] = target: kinases (KINOMEscan panel) (Homo sapiens, UniProt O60331); conditions: PIP5K1C; Published KINOMEscan; ref original PKIS2 published data; cited from earlier work
[2] = target: kinases (KINOMEscan panel) (Homo sapiens, UniProt P17948); conditions: kinase FLT1; Published KINOMEscan; ref original PKIS2 published data; cited from earlier work
[3] = target: T1, kinases (KINOMEscan panel) (Homo sapiens, UniProt P52333); conditions: kinase JAK3(JH1domain-catalytic); Published KINOMEscan; ref original PKIS2 published data; cited from earlier work
T1 sequence (P52333 1-1124): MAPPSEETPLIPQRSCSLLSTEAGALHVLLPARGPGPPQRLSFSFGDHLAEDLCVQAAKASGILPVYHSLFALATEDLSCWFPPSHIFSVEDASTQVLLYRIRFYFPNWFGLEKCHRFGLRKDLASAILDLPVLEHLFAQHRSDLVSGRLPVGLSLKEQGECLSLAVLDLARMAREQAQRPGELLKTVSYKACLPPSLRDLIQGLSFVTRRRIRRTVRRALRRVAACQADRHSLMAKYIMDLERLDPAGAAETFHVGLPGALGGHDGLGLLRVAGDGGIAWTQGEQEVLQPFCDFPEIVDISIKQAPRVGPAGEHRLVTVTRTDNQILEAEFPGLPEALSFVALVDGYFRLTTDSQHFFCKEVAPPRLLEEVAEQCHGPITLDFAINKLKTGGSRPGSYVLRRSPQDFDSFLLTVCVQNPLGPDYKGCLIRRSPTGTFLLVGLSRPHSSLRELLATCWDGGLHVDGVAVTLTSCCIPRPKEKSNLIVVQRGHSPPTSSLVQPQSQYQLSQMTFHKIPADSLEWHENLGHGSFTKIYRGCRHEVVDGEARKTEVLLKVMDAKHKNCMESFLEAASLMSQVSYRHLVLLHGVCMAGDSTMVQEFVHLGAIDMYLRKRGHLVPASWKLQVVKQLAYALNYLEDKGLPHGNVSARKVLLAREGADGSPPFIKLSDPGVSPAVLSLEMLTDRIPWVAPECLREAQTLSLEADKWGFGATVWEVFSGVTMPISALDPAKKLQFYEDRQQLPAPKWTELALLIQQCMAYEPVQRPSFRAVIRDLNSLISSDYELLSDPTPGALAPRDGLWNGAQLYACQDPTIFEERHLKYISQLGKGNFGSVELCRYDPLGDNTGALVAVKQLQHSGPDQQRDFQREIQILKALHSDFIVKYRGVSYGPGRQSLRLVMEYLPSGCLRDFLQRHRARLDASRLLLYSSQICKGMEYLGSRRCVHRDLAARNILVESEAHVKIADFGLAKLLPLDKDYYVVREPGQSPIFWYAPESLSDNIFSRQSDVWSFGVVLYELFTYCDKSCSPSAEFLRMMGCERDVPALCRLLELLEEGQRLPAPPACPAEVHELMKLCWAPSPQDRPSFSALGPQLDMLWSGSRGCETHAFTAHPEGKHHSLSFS

[4] = target: T2, kinases (KINOMEscan panel) (Homo sapiens, UniProt Q6ZWH5); conditions: Published KINOMEscan; ref original PKIS2 published data; cited from earlier work
T2 sequence (Q6ZWH5 1-1172): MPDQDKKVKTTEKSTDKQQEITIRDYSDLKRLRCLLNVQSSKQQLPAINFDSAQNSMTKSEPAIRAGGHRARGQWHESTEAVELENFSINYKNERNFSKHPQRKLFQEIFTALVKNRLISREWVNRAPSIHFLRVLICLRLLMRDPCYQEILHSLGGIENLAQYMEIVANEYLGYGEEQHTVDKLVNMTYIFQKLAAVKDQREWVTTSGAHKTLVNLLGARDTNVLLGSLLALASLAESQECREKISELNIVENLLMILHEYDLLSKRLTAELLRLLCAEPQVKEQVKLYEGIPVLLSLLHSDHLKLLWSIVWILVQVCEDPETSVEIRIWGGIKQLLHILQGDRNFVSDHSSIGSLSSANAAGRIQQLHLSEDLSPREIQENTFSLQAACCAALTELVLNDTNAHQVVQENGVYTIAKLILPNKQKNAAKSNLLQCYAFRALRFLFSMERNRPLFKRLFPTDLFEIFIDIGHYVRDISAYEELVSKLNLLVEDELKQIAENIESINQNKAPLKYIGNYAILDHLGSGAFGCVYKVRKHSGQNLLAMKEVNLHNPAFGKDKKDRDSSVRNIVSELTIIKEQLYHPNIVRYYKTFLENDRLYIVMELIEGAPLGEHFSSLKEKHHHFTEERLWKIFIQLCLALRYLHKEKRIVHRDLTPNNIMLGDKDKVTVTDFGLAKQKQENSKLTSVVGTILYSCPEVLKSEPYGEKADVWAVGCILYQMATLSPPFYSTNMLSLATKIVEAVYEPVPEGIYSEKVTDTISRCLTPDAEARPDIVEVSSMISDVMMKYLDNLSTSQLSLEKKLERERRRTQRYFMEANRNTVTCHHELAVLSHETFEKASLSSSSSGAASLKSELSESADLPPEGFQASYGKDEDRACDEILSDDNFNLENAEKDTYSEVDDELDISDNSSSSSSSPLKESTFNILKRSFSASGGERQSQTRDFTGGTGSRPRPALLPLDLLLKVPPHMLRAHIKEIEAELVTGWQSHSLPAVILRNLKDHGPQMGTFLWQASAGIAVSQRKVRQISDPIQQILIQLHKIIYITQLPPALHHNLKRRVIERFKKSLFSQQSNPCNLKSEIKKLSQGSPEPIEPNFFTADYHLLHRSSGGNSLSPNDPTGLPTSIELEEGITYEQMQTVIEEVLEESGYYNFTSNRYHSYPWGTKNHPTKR

Sequence of kinases (KINOMEscan panel) (Homo sapiens, UniProt P17948) (P17948 27-1338): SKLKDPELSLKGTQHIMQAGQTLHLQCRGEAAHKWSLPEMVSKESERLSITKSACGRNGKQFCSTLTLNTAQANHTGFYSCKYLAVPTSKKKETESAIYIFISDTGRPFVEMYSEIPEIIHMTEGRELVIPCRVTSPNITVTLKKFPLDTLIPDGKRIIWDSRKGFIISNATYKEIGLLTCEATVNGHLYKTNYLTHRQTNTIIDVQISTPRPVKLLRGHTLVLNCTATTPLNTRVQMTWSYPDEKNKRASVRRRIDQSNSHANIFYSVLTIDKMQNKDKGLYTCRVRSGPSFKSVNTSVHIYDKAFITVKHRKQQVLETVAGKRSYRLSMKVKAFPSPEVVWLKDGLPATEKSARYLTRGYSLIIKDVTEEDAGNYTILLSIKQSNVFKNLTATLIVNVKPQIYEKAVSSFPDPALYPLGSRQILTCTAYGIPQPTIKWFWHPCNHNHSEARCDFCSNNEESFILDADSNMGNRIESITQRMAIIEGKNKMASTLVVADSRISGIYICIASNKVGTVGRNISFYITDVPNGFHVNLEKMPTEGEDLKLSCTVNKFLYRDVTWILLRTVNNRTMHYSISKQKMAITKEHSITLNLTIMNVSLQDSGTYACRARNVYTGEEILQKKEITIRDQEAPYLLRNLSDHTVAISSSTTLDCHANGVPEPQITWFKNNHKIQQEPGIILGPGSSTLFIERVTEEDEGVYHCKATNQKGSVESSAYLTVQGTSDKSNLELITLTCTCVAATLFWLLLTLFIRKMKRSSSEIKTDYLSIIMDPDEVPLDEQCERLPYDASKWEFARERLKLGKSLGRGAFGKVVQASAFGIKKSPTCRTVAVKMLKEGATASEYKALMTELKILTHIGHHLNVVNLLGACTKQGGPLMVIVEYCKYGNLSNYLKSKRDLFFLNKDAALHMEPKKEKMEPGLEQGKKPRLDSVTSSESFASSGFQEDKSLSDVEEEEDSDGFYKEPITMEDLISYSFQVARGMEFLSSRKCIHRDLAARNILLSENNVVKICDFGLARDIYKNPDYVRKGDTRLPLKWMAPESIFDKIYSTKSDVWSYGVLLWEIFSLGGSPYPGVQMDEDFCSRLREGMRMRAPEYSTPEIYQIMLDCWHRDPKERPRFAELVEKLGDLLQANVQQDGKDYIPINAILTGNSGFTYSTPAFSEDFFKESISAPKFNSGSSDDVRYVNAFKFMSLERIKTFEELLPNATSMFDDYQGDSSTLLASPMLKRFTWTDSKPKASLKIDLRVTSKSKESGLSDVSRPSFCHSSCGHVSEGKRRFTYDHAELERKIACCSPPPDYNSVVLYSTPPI
Sequence of kinases (KINOMEscan panel) (Homo sapiens, UniProt O60331) (O60331 whole entry): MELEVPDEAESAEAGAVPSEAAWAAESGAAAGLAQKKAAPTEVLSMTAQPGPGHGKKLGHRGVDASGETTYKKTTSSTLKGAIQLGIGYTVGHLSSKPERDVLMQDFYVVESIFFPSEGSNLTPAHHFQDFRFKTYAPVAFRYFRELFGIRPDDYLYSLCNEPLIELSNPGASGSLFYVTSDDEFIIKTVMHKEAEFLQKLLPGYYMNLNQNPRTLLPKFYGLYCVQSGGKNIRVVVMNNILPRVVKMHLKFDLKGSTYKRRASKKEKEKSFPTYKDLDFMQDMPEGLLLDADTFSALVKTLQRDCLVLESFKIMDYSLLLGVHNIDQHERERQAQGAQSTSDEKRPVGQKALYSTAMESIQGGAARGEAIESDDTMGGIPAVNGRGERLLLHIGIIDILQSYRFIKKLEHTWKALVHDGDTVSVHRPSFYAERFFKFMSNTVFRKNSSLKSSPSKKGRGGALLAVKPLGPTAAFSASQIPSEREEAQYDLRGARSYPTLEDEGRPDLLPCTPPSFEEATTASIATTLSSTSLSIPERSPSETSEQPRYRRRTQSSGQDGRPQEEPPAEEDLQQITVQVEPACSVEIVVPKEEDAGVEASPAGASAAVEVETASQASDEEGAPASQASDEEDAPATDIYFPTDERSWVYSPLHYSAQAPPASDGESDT

Question: What does the source list for `Cc1cccc(-c2nc(Nc3ccncc3)c3ccccc3n2)n1` [NK215]?
Answer: KINOMEscan PIP5K1C [1]: 40; KINOMEscan FLT1 [2]: 0; KINOMEscan JAK3(JH1domain-catalytic) [3]: 0; KINOMEscan NEK10 [4]: 0
